Experimental data published in US11661426B2, “Imidazole-containing inhibitors of ALK2 kinase” (BioCryst Pharmaceuticals, Inc., priority 2017, dated 2023).

Each molecule was assayed against ALK2 (Homo sapiens (Human), UniProt Q04771) (assay: ALK2 inhibition, LanthaScreen Eu Kinase Binding Assay (ThermoFisher Scientific / Life Technologies)). Settings: read-out: Measured Ki (IC50) Value for Compounds: IC50.
Description: Biochemical assays to measure the inhibitory effects of the compounds were performed by ThermoFisher Scientific (Life Technologies). ALK2 inhibition was tested using LanthaScreen™ Eu Kinase Binding Assay screening protocol.

ALK2, sequence (Q04771 21-509): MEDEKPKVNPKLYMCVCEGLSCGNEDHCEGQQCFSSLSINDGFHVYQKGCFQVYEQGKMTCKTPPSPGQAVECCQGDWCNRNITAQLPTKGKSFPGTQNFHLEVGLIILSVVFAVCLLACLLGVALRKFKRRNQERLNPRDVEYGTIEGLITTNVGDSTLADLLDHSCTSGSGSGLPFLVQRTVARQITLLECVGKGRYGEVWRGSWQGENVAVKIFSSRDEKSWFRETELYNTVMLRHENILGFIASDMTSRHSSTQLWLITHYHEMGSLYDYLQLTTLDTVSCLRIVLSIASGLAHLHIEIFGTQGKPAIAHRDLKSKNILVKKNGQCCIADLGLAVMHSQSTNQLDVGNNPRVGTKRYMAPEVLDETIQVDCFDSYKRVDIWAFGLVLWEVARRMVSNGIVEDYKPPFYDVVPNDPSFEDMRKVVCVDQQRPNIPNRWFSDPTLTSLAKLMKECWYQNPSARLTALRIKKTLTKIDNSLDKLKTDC

Structure (SMILES)	IC50
COc1cc(C(=O)N(C)C)cc(-n2cnc(Nc3nc(N4CCC[C@H]4CO)nn4cccc34)c2)c1 [Compound 426c, (S)-3-(4-((2-(2-(hydroxymethyl)pyrrolidin-1-yl)pyrrolo[2,1-f][1,2,4]triazin-4-yl)amino)-1H-imidazol-1-yl)-5-methoxy-N,N-dimethylbenzamide]	< 100 nM
CNC(=O)c1cc(OC)cc(-n2cnc(Nc3nc(N4CCC[C@H]4CO)nn4cccc34)c2)c1 [Compound 427b, (S)-3-(4-((2-(2-(hydroxymethyl)pyrrolidin-1-yl)pyrrolo[2,1-f][1,2,4]triazin-4-yl)amino)-1H-imidazol-1-yl)-5-methoxy-N-methylbenzamide]	< 100 nM
OC[C@@H]1CCCN1c1nc(Nc2cn(-c3ccc4c(c3)OCO4)cn2)c2ccsc2n1 [Compound 428b, (S)-(1-(4-((1-(benzo[d][1,3]dioxol-5-yl)-1H-imidazol-4-yl)amino)thieno[2,3-d]pyrimidin-2-yl)pyrrolidin-2-yl)methanol]	< 100 nM
NC(=O)[C@@H]1CCCN1c1nc(Nc2cn(-c3ccc4c(c3)OCO4)cn2)c2ccsc2n1 [Compound 429a, (S)-1-(4-((1-(benzo[d][1,3]dioxol-5-yl)-1H-imidazol-4-yl)amino)thieno[2,3-d]pyrimidin-2-yl)pyrrolidine-2-carboxamide]	100 to 1000 nM
COc1cc(-n2cnc(Nc3nc(N4CCC[C@H]4CO)c4cnn(C5CCCCO5)c4n3)c2)cc(OC)c1OC (stereo partly drawn) [Compound 430b, ((2S)-1-(1-(tetrahydro-2H-pyran-2-yl)-6-((1-(3,4,5-trimethoxyphenyl)-1H-imidazol-4-yl)amino)-1H-pyrazolo[3,4-d]pyrimidin-4-yl)pyrrolidin-2-yl)methanol]	< 100 nM
NC(=O)[C@@H]1CCCN1c1nc(Nc2cn(-c3ccc4c(c3)OC(F)(F)O4)cn2)c2ccsc2n1 [Compound 431e, (S)-1-(4-((1-(2,2-difluorobenzo[d][1,3]dioxol-5-yl)-1H-imidazol-4-yl)amino)thieno[2,3-d]pyrimidin-2-yl)pyrrolidine-2-carboxamide]	> 1000 nM
OC[C@@H]1CCCN1c1nc(Nc2cn(-c3ccc4c(c3)OC(F)(F)O4)cn2)c2ccsc2n1 [Compound 432a, (S)-(1-(4-((1-(2,2-difluorobenzo[d][1,3]dioxol-5-yl)-1H-imidazol-4-yl)amino)thieno[2,3-d]pyrimidin-2-yl)pyrrolidin-2-yl)methanol]	100 to 1000 nM
COc1cc(-n2cnc(Nc3nc(N4CCC[C@H]4CO)c4c(C)nn([C@H]5CC[C@H](N)CC5)c4n3)c2)cc(OC)c1OC [Compound 435e, ((S)-1-(1-((trans)-4-aminocyclohexyl)-3-methyl-6-((1-(3,4,5-trimethoxyphenyl)-1H-imidazol-4-yl)amino)-1H-pyrazolo[3,4-d]pyrimidin-4-yl)pyrrolidin-2-yl)methanol]	< 100 nM
COc1cc(-n2cnc(Nc3nc(N4CCC[C@H]4CO)c4c(C)nn(CC5CCCCC5)c4n3)c2)cc(OC)c1OC [Compound 438c, (S)-(1-(1-(cyclohexylmethyl)-3-methyl-6-((1-(3,4,5-trimethoxyphenyl)-1H-imidazol-4-yl)amino)-1H-pyrazolo[3,4-d]pyrimidin-4-yl)pyrrolidin-2-yl)methanol]	< 100 nM
COc1cc(-n2cnc(Nc3nc(N4CCC[C@H]4CO)c4c(C)nn(C5CCCCC5)c4n3)c2)cc(OC)c1OC [Compound 439c, (S)-(1-(1-cyclohexyl-3-methyl-6-((1-(3,4,5-trimethoxyphenyl)-1H-imidazol-4-yl)amino)-1H-pyrazolo[3,4-d]pyrimidin-4-yl)pyrrolidin-2-yl)methanol]	< 100 nM
COc1cc(-n2cnc(Nc3nc(N4CCC[C@H]4CO)c4c(C)nn(C5CCCC5)c4n3)c2)cc(OC)c1OC [Compound 440c, (S)-(1-(1-cyclopentyl-3-methyl-6-((1-(3,4,5-trimethoxyphenyl)-1H-imidazol-4-yl)amino)-1H-pyrazolo[3,4-d]pyrimidin-4-yl)pyrrolidin-2-yl)methanol]	< 100 nM
COc1cc(-n2cnc(Nc3nc(N4CCC[C@H]4CO)c4c(C)nn(C5CCC5)c4n3)c2)cc(OC)c1OC [Compound 442c, (S)-(1-(1-cyclobutyl-3-methyl-6-((1-(3,4,5-trimethoxyphenyl)-1H-imidazol-4-yl)amino)-1H-pyrazolo[3,4-d]pyrimidin-4-yl)pyrrolidin-2-yl)methanol]	< 100 nM
COc1cc(-n2cnc(Nc3nc(N4CCC[C@H]4CO)c4c(C)nn([C@H]5C[C@@H](N)C5)c4n3)c2)cc(OC)c1OC [Compound 444c, ((S)-1-(1-((cis)-3-aminocyclobutyl)-3-methyl-6-((1-(3,4,5-trimethoxyphenyl)-1H-imidazol-4-yl)amino)-1H-pyrazolo[3,4-d]pyrimidin-4-yl)pyrrolidin-2-yl)methanol]	< 100 nM

Further lines, results first:

IC50	Structure (SMILES)
100 to 1000 nM	OC[C@@H]1CCCN1c1nc(Nc2cn(-c3cccc(O)c3O)cn2)c2cccn2n1 [Compound 424f, (S)-3-(4-((2-(2-(hydroxymethyl)pyrrolidin-1-yl)pyrrolo[2,1-f][1,2,4]triazin-4-yl)amino)-1H-imidazol-1-yl)benzene-1,2-diol]
< 100 nM	OC[C@@H]1CCCN1c1nc(Nc2cn(-c3ccc4c(c3)OCO4)cn2)c2cccn2n1 [Compound 425e, (S)-(1-(4-((1-(benzo[d][1,3]dioxol-5-yl)-1H-imidazol-4-yl)amino)pyrrolo[2,1-f][1,2,4]triazin-2-yl)pyrrolidin-2-yl)methanol]
100 to 1000 nM	OC[C@@H]1CCCN1c1nc(Nc2cn(-c3ccc4c(c3)OC(F)(F)O4)cn2)c2cccn2n1 [Compound 433b, (S)-(1-(4-((1-(2,2-difluorobenzo[d][1,3]dioxol-5-yl)-1H-imidazol-4-yl)amino)pyrrolo[2,1-f][1,2,4]triazin-2-yl)pyrrolidin-2-yl)methanol]
< 100 nM	OCc1cccc(-n2cnc(Nc3nc(N4CCC[C@H]4CO)nn4cccc34)c2)c1 [Compound 434e, (S)-(1-(4-((1-(3-(hydroxymethyl)phenyl)-1H-imidazol-4-yl)amino)pyrrolo[2,1-f][1,2,4]triazin-2-yl)pyrrolidin-2-yl)methanol]
< 100 nM	OCc1ccc(-n2cnc(Nc3nc(N4CCC[C@H]4CO)nn4cccc34)c2)cc1 [Compound 436e, (S)-(1-(4-((1-(4-(hydroxymethyl)phenyl)-1H-imidazol-4-yl)amino)pyrrolo[2,1-f][1,2,4]triazin-2-yl)pyrrolidin-2-yl)methanol]
< 100 nM	Cc1cc(-n2cnc(Nc3nc(N4CCC[C@H]4CO)nn4cccc34)c2)ccn1 [Compound 437e, (S)-(1-(4-((1-(2-methylpyridin-4-yl)-1H-imidazol-4-yl)amino)pyrrolo[2,1-f][1,2,4]triazin-2-yl)pyrrolidin-2-yl)methanol]
< 100 nM	OC[C@@H]1CCCN1c1nc(Nc2cn(-c3ccnc4c(F)cccc34)cn2)c2cccn2n1 [Compound 441e, (S)-(1-(4-((1-(8-fluoroquinolin-4-yl)-1H-imidazol-4-yl)amino)pyrrolo[2,1-f][1,2,4]triazin-2-yl)pyrrolidin-2-yl)methanol]
< 100 nM	OC[C@@H]1CCCN1c1nc(Nc2cn(-c3ccnc4ccsc34)cn2)c2cccn2n1 [Compound 443e, (S)-(1-(4-((1-(thieno[3,2-b]pyridin-7-yl)-1H-imidazol-4-yl)amino)pyrrolo[2,1-f][1,2,4]triazin-2-yl)pyrrolidin-2-yl)methanol]
